Experimental data from patent US20210045385A1, “PYRIDAZINONE-SUBSTITUTED KETOXIMES AS HERBICIDES” (FMC Corporation, priority 2018, published 2021).

How the values were obtained:
Type in all cases: in vivo
[1] = tested on: pigweed (Amaranthus retroflexus); assay: Test A postemergence, visual plant response rating; settings: for Pigweed plant response rating (0 to 100 scale): 500 g ai/ha, postemergence, 0 is no effect, 100 is complete control; for Pigweed plant response rating: Postemergence, 125 g ai/ha, 0 to 100 scale (0 no effect, 100 complete control)
In short: (§1)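 Preemergence: seeds in loam/sand blend given directed soil spray of compound in non-phytotoxic solvent with surfactant. Postemergence: plants 2–10 cm, one- to two-leaf stage, sprayed with same formulation. Visual injury rated vs untreated controls after ~10 days in greenhouse, 0 (no effect) to 100 (complete control).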

kochia (Kochia scoparia) [2] = assay: Test A postemergence, visual plant response rating; settings: for Kochia plant response rating (0 to 100 scale): 500 g ai/ha, postemergence, 0 is no effect, 100 is complete control; for Kochia plant response rating: Postemergence, 125 g ai/ha, 0 to 100 scale (0 no effect, 100 complete control)
In short: as §1

corn (Zea mays) = assay: Test A postemergence, visual plant response rating; settings: for Corn plant response rating (0 to 100 scale): 500 g ai/ha, postemergence, 0 is no effect, 100 is complete control; for Corn plant response rating: Postemergence, 125 g ai/ha, 0 to 100 scale (0 no effect, 100 complete control)
In short: as §1

[3] = tested on: Italian ryegrass (Lolium multiflorum); assay: Test A postemergence, visual plant response rating; settings: for Ryegrass, Italian plant response rating (0 to 100 scale): 500 g ai/ha, postemergence, 0 is no effect, 100 is complete control; for Ryegrass, Italian plant response rating: Postemergence, 125 g ai/ha, 0 to 100 scale (0 no effect, 100 complete control)
In short: as §1

[4] = tested on: wheat (Triticum aestivum); assay: Test A postemergence, visual plant response rating; settings: for Wheat plant response rating (0 to 100 scale): 500 g ai/ha, postemergence, 0 is no effect, 100 is complete control; for Wheat plant response rating: Postemergence, 125 g ai/ha, 0 to 100 scale (0 no effect, 100 complete control)
In short: as §1

[5] = tested on: barnyardgrass (Echinochloa crus-galli); assay: Test A postemergence, visual plant response rating; settings: for Barnyardgrass plant response rating (0 to 100 scale): 500 g ai/ha, postemergence, 0 is no effect, 100 is complete control; for Barnyardgrass plant response rating: Postemergence, 125 g ai/ha, 0 to 100 scale (0 no effect, 100 complete control)
In short: as §1

[6] = tested on: foxtail, giant (giant foxtail, Setaria faberii); assay: Test A postemergence, visual plant response rating; settings: for Foxtail, Giant plant response rating (0 to 100 scale): 500 g ai/ha, postemergence, 0 is no effect, 100 is complete control; for Foxtail, Giant plant response rating: Postemergence, 125 g ai/ha, 0 to 100 scale (0 no effect, 100 complete control)
In short: as §1

[7] = tested on: blackgrass (Alopecurus myosuroides); assay: Test A postemergence, visual plant response rating; settings: for Blackgrass plant response rating (0 to 100 scale): 500 g ai/ha, postemergence, 0 is no effect, 100 is complete control; for Blackgrass plant response rating: Postemergence, 125 g ai/ha, 0 to 100 scale (0 no effect, 100 complete control)
In short: as §1

[8] = tested on: ragweed (common ragweed, Ambrosia elatior); assay: Test A postemergence, visual plant response rating; settings: for Ragweed plant response rating (0 to 100 scale): 500 g ai/ha, postemergence, 0 is no effect, 100 is complete control; for Ragweed plant response rating: Postemergence, 125 g ai/ha, 0 to 100 scale (0 no effect, 100 complete control)
In short: as §1

[9] = tested on: galium (catchweed bedstraw, Galium aparine); assay: Test A postemergence, visual plant response rating; settings: for Galium plant response rating (0 to 100 scale): 500 g ai/ha, postemergence, 0 is no effect, 100 is complete control; for Galium plant response rating: Postemergence, 125 g ai/ha, 0 to 100 scale (0 no effect, 100 complete control)
In short: as §1

[10] = tested on: pigweed (Amaranthus retroflexus); assay: Test A preemergence, visual plant response rating; settings: for Pigweed plant response rating: 125 g ai/ha, preemergence, 0 to 100 scale, 0 no effect, 100 complete control; for Pigweed plant response rating (0 to 100 scale): 500 g ai/ha Preemergence, approx. 10 days
In short: as §1

kochia (Kochia scoparia) [11] = assay: Test A preemergence, visual plant response rating; settings: for Kochia plant response rating: 125 g ai/ha, preemergence, 0 to 100 scale, 0 no effect, 100 complete control; for Kochia plant response rating (0 to 100 scale): 500 g ai/ha Preemergence, approx. 10 days
In short: as §1

[12] = tested on: Italian ryegrass (Lolium multiflorum); assay: Test A preemergence, visual plant response rating; settings: for Ryegrass, Italian plant response rating: 125 g ai/ha, preemergence, 0 to 100 scale, 0 no effect, 100 complete control; for Ryegrass, Italian plant response rating (0 to 100 scale): 500 g ai/ha Preemergence, approx. 10 days
In short: as §1

[13] = tested on: barnyardgrass (Echinochloa crus-galli); assay: Test A preemergence, visual plant response rating; settings: for Barnyardgrass plant response rating: 125 g ai/ha, preemergence, 0 to 100 scale, 0 no effect, 100 complete control; for Barnyardgrass plant response rating (0 to 100 scale): 500 g ai/ha Preemergence, approx. 10 days
In short: as §1

[14] = tested on: foxtail, giant (giant foxtail, Setaria faberii); assay: Test A preemergence, visual plant response rating; settings: for Foxtail, Giant plant response rating: 125 g ai/ha, preemergence, 0 to 100 scale, 0 no effect, 100 complete control; for Foxtail, Giant plant response rating (0 to 100 scale): 500 g ai/ha Preemergence, approx. 10 days
In short: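 Ratings use a 0–100 visual scale (100 = complete control) against untreated controls, scored about 10 days after greenhouse treatment. Test chemicals were formulated in surfactant-containing non-phytotoxic solvent and applied either as soil spray after planting (preemergence) or onto one- to two-leaf, 2–10 cm plants (postemergence).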

[15] = tested on: ragweed (common ragweed, Ambrosia elatior); assay: Test A preemergence, visual plant response rating; settings: for Ragweed plant response rating: 125 g ai/ha, preemergence, 0 to 100 scale, 0 no effect, 100 complete control; for Ragweed plant response rating (0 to 100 scale): 500 g ai/ha Preemergence, approx. 10 days
In short: as §1

rice (Oryza sativa) = assay: Test B flooded paddy test, visual plant response rating; settings: 250 g ai/ha, Flood, applied to paddy water, 2-leaf stage, evaluated after 13 to 15 days
In short: (§2)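 Greenhouse paddy conditions applied: two-leaf plants, a 3 cm flood above the soil surface maintained throughout, and compound added to the water rather than the foliage. Plants were judged visually against controls at 13 to 15 days.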

[16] = tested on: barnyardgrass (Echinochloa crus-galli); assay: as above; settings: 250 g ai/ha, Flood, applied to paddy water, 2-leaf stage, evaluated after 13 to 15 days
In short: as §2

[17] = tested on: sedge, umbrella (small-flower umbrella sedge, Cyperus difformis); assay: as above; settings: 250 g ai/ha, Flood, applied to paddy water, 2-leaf stage, evaluated after 13 to 15 days
In short: as §2

[18] = tested on: ducksalad (Heteranhera limosa); assay: as above; settings: 250 g ai/ha, Flood, applied to paddy water, 2-leaf stage, evaluated after 13 to 15 days
In short: as §2

## CON=C(c1c(O)c(C)nn(C)c1=O)c1cccc2sccc12 [Compound 59]
[1]
  Pigweed plant response rating (0 to 100 scale): 90
  Pigweed plant response rating: 80
Kochia (Kochia scoparia) [2]
  Kochia plant response rating (0 to 100 scale): 80
  Kochia plant response rating: 80
Corn (Zea mays)
  Corn plant response rating (0 to 100 scale): 20
  Corn plant response rating: 0
[3]
  Ryegrass, Italian plant response rating (0 to 100 scale): 100
  Ryegrass, Italian plant response rating: 80
[4]
  Wheat plant response rating (0 to 100 scale): 0
  Wheat plant response rating: 0
[5]
  Barnyardgrass plant response rating (0 to 100 scale): 50
  Barnyardgrass plant response rating: 30
[6]
  Foxtail, Giant plant response rating (0 to 100 scale): 60
  Foxtail, Giant plant response rating: 40
[7]
  Blackgrass plant response rating (0 to 100 scale): 80
  Blackgrass plant response rating: 70
[8]
  Ragweed plant response rating (0 to 100 scale): 80
  Ragweed plant response rating: 60
[9]
  Galium plant response rating (0 to 100 scale): 90
  Galium plant response rating: 70
[10]
  Pigweed plant response rating: 0
  Pigweed plant response rating (0 to 100 scale): 70
Kochia (Kochia scoparia) [11]
  Kochia plant response rating: 10
  Kochia plant response rating (0 to 100 scale): 60
[12]
  Ryegrass, Italian plant response rating: 30
  Ryegrass, Italian plant response rating (0 to 100 scale): 90
[13]
  Barnyardgrass plant response rating: 0
  Barnyardgrass plant response rating (0 to 100 scale): 30
[14]
  Foxtail, Giant plant response rating: 30
  Foxtail, Giant plant response rating (0 to 100 scale): 70
[15]
  Ragweed plant response rating: 30
  Ragweed plant response rating (0 to 100 scale): 100
Rice (Oryza sativa)
  Plant response rating, Rice (0 to 100 scale, 0 is no effect, 100 is complete control): 0
[16]
  Plant response rating, Barnyardgrass (0 to 100 scale, 0 is no effect, 100 is complete control): 0
[17]
  Plant response rating, Sedge, Umbrella (0 to 100 scale, 0 is no effect, 100 is complete control): 0
[18]
  Plant response rating, Ducksalad (0 to 100 scale, 0 is no effect, 100 is complete control): 0

## Cc1ccc(Cl)cc1/C(=N\O)c1c(O)c(C)nn(C)c1=O [Compound 35]
[1]
  Pigweed plant response rating (0 to 100 scale): 20
  Pigweed plant response rating: 10
Kochia (Kochia scoparia) [2]
  Kochia plant response rating (0 to 100 scale): 10
  Kochia plant response rating: 0
Corn (Zea mays)
  Corn plant response rating (0 to 100 scale): 0
  Corn plant response rating: 0
[3]
  Ryegrass, Italian plant response rating (0 to 100 scale): 20
  Ryegrass, Italian plant response rating: 0
[4]
  Wheat plant response rating (0 to 100 scale): 0
  Wheat plant response rating: 0
[5]
  Barnyardgrass plant response rating (0 to 100 scale): 0
  Barnyardgrass plant response rating: 0
[6]
  Foxtail, Giant plant response rating (0 to 100 scale): 0
  Foxtail, Giant plant response rating: 0
[7]
  Blackgrass plant response rating (0 to 100 scale): 20
  Blackgrass plant response rating: 0
[8]
  Ragweed plant response rating (0 to 100 scale): 20
  Ragweed plant response rating: 10
[9]
  Galium plant response rating (0 to 100 scale): 70
  Galium plant response rating: 20
[10]
  Pigweed plant response rating: 0
  Pigweed plant response rating (0 to 100 scale): 0
Kochia (Kochia scoparia) [11]
  Kochia plant response rating: 0
  Kochia plant response rating (0 to 100 scale): 0
[12]
  Ryegrass, Italian plant response rating: 0
  Ryegrass, Italian plant response rating (0 to 100 scale): 10
[13]
  Barnyardgrass plant response rating: 0
  Barnyardgrass plant response rating (0 to 100 scale): 0
[14]
  Foxtail, Giant plant response rating: 0
  Foxtail, Giant plant response rating (0 to 100 scale): 0
[15]
  Ragweed plant response rating: 0
  Ragweed plant response rating (0 to 100 scale): 10
Rice (Oryza sativa)
  Plant response rating, Rice (0 to 100 scale, 0 is no effect, 100 is complete control): 0
[16]
  Plant response rating, Barnyardgrass (0 to 100 scale, 0 is no effect, 100 is complete control): 0
[17]
  Plant response rating, Sedge, Umbrella (0 to 100 scale, 0 is no effect, 100 is complete control): 0
[18]
  Plant response rating, Ducksalad (0 to 100 scale, 0 is no effect, 100 is complete control): 0
